Assay: Visual observation of precipitation in ethanol/enoxaparin sodium mixtures
Format: physicochemical
Details: enoxaparin sodium 400 IU/mL; ethanol 60 and 70% v/v
Method: Various mixtures of ethanol/enoxaparin sodium were prepared in 5 mL glass hemolysis tubes combining either: • a) a fixed concentration of enoxaparin sodium with 400 IU/mL (corresponding to the dose used in an antithrombotic preventive lock) in a range of increasing concentrations of ethanol (30%, 40%, 45%, 50%, 60% and 70% by volume (v/v)), the dilutions of ethanol having been made in physiological serum solution (NaCl in a concentration of 0.9 g/100 ml). • b) increasing concentrations of enoxaparin sodium (50, 100, 400, 500 and 1,000 IU/mL) in an ethanol solution of fixed concentration (40, 45 or 50% v/v). The visual observation of different ethanol/enoxaparin mixtures was carried out by way of an assessment of the presence (or absence) of precipitation at the time of effecting the contacting of the two solutions; the observed phenomena corresponding, either to the absence (level 0 noted −), or the presence of a precipitation. The extent of the precipitation was assessed, either based on the appearance of a cloudiness, or on the formation of a deposit in the form of droplets and the levels were evaluated by the scores: +, ++, +++. […] The observation was monitored over time, that is after 1 minute, 1 hour, 24 hours, 48 hours and 72 hours, of contact, and this was done at two temperatures, 20° C. and 37° C.

For enoxaparin sodium, the “visual appearance of the mixture (cloudiness)” value was “the cloudiness increases progressively as the ethanol content increases”.

Same assay, conditions: enoxaparin sodium 400 IU/mL; ethanol less than or equal to 40% v/v; up to 72 hours at 20° C. or 37° C.

For enoxaparin sodium, the “visual appearance of the mixture (precipitation)” value was “remains clear and colourless”.

Assay: Ethanol concentration that does not cause the lock composition to precipitate, varying the heparin content
Format: physicochemical
Details: heparin content 10 IU/mL; 37° C.; observed after 48 hours
Method: The lock compositions tested were as follows: • composition comprising a mixture of the nadroparin calcium and ethanol • composition comprising a mixture of the tinzaparin sodium and ethanol, • composition comprising a mixture of the dalteparin sodium and ethanol, • composition comprising a mixture of the enoxaparin sodium and ethanol. […] The compositions were tested at ambient temperature and at 37° C. and the results were observed after 48 hours.

First: dalteparin sodium
Second: enoxaparin sodium
The “Ethanol content (% v/v) at 37° C. that does not cause precipitation” value of the first is lower: 47.8 % v/v for the first, 48.2 % v/v for the second.

Going from nadroparin calcium to tinzaparin sodium, the “Ethanol content (% v/v) at 37° C. that does not cause precipitation” value falls from 44.6 % v/v to 44.0 % v/v.

Same assay, conditions: heparin content 10 IU/mL; ambient temperature; observed after 48 hours

Compared with dalteparin sodium, enoxaparin sodium is higher in “Ethanol content (% v/v) at ambient temperature that does not cause precipitation” value: 44.6 % v/v for the first, 47.6 % v/v for the second.

First: nadroparin calcium
Second: tinzaparin sodium
The “Ethanol content (% v/v) at ambient temperature that does not cause precipitation” value of the first is higher: 43.7 % v/v for the first, 42.1 % v/v for the second.

Same assay, conditions: heparin content 500 IU/mL; 37° C.; observed after 48 hours

Going from dalteparin sodium to enoxaparin sodium, the “Ethanol content (% v/v) at 37° C. that does not cause precipitation” value rises from 41.9 % v/v to 45.8 % v/v.

Compared with nadroparin calcium, tinzaparin sodium is lower in “Ethanol content (% v/v) at 37° C. that does not cause precipitation” value: 41.7 % v/v for the first, 41.0 % v/v for the second.

Same assay, conditions: heparin content 500 IU/mL; ambient temperature; observed after 48 hours

First: dalteparin sodium
Second: enoxaparin sodium
The “Ethanol content (% v/v) at ambient temperature that does not cause precipitation” value of the first is lower: 35.7 % v/v for the first, 40.7 % v/v for the second.

Going from nadroparin calcium to tinzaparin sodium, the “Ethanol content (% v/v) at ambient temperature that does not cause precipitation” value falls from 41.7 % v/v to 34.3 % v/v.

Same assay, conditions: heparin content 1,000 IU/mL; 37° C.; observed after 48 hours

Compared with dalteparin sodium, enoxaparin sodium is higher in “Ethanol content (% v/v) at 37° C. that does not cause precipitation” value: 35.9 % v/v for the first, 43.3 % v/v for the second.

Going from nadroparin calcium to tinzaparin sodium, the “Ethanol content (% v/v) at 37° C. that does not cause precipitation” value falls from 38.7 % v/v to 38.0 % v/v.

Same assay, conditions: heparin content 1,000 IU/mL; ambient temperature; observed after 48 hours

First: dalteparin sodium
Second: enoxaparin sodium
The “Ethanol content (% v/v) at ambient temperature that does not cause precipitation” value of the first is lower: 26.7 % v/v for the first, 33.7 % v/v for the second.

Going from nadroparin calcium to tinzaparin sodium, the “Ethanol content (% v/v) at ambient temperature that does not cause precipitation” value falls from 39.7 % v/v to 26.3 % v/v.

Assay: Assay of enoxaparin by HPLC-ELSD in supernatant
Format: physicochemical
Details: enoxaparin sodium 400 IU/mL; ethanol 70% v/v
Method: The assaying of enoxaparin was performed by a method of coupling high-performance liquid chromatography (HPLC) with an evaporative light scattering detector (ELSD) method. In order to be within the zone of linearity of the detector response, the samples were diluted to one tenth in the physiological serum solution. The analysis was carried out in the mixtures combining enoxaparin sodium 400 IU/mL with increasing concentrations of ethanol (30 to 70% (V/V)), in comparison with a calibration range of the enoxaparin composition (marketed under the trade name Lovenox®) prepared in the physiological serum solution at the following concentrations: 6 IU/mL, 12 IU/mL, 40 IU/mL, 80 IU/mL, 120 IU/mL.
For the samples presenting a cloudiness effect, a preliminary centrifugation at 1,600 g for 5 minutes was carried out and only the supernatant was subsequently analysed.
The operating conditions for the chromatographic separation were as follows: • analytical column measuring 150 mm in length and 4.6 mm in diameter, filled with a stationary phase of C18 5 μm. • separation of components in isocratic mode making use of a mixture of methanol/water, 50/50 (V/V) at a flow rate of 0.3 mL/min. • detection using an evaporative light scattering detector (ELSD): evaporation temperature of 40° C., gain of the detector=3 and pressure of nitrogen (nebulizer gas)=3.5 bar.

For enoxaparin sodium, the “enoxaparin content levels found in the supernatant after centrifugation” value was “not detectable”.

From patent publication US20140371171A1, “Aqueous Lock Composition Comprising Ethanol and a Polysaccharide Anticoagulant” (UNIVERSITE D'AUVERGNE CLERMONT I, priority 2012, published 2014)
